Data: publication PMC11992225, “Antibacterial compounds against non-growing and intracellular bacteria” (npj Antimicrobials and Resistance, 2025)
Read-outs that look alike come from different tables or passages of the source.

Assays:
[1] = system: non-growing UPEC CFT073; test: Dilution-regrowth assay (screen, hit validation, dose-response) on stationary-phase UPEC; format: cell-based, Escherichia coli; details: for EC50: Escherichia coli; for OD600 at 6hr, Mean: after dilution into drug-free medium
How it was run: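 Regrowth (OD600 after 6 h, 37 °C) of diluted non-growing CFT073, following 24 h compound treatment of 24 h stationary cultures, defines activity relative to untreated control. Screen at 20 µM, validation at 20, 10, 5 µM (duplicates), dose–response in three biological replicates fitted by five-parameter logistic.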

[2] = system: intracellular S. flexneri 5a M90T in TC7 cells; test: microbe, parasite or virus in culture; format: cell-based, Shigella flexneri; details: for IC50: Shigella flexneri, TC7, 14 h
Source text: Nonproliferating bacterial pathogens frequently inhabit intracellular environments, but establishing relevant infection models for high-throughput testing is challenging. Therefore, we firstly tested ability of the hit compounds to cross the eukaryotic cytoplasmic membrane barrier and inhibit growth of S. flexneri within the cytoplasm of the TC7 human colon adenocarcinoma cell line[59]. To this end, we developed a new, fluorescence-based method that enables real-time monitoring of growth of intracellular Shigella. We used S. flexneri 5a M90T strain producing the AfaE adhesin that enhances bacterial adhesion to epithelial cells and allows synchronization of invasion. The strain was further modified to constitutively express super-folder GFP (sfGFP), which enables monitoring bacterial growth by fluorescence measurement. The epithelial cells were grown to confluence and infected with bacteria at an MOI (multiplicity of infection) of 50. […] Following bacterial adhesion and invasion, the cells were incubated with varying concentrations of the hit compounds and intracellular bacterial growth was tracked by measuring green fluorescence.
The cells were split using trypsin, seeded in 96-well plates for infection, and grown to confluence, corresponding to approximately 40,000 cells per well.
A single colony of S. flexneri was inoculated into TSB supplemented with 50 μg/ml spectinomycin and incubated overnight at 37°C with agitation. The overnight culture was diluted 1:200 in fresh TSB, and the bacteria were grown at 37 °C until the OD600 reached 0.3–0.4, corresponding to approximately 2 × 10^7 CFU/ml. Bacteria were pelleted by centrifugation, washed twice with sterile PBS, and resuspended in infection solution (serum-free DMEM supplemented with 20 mM HEPES, pH 7.4). Just prior to infection, the medium was withdrawn, and the cells were washed twice with sterile PBS. The bacterial inoculum (MOI 50, 2 × 10^7 CFU/ml) was added to all wells except the no-infection control. The plates were incubated at room temperature for 15 min to allow bacterial adhesion, followed by a 1 h incubation at 37 °C with 5% CO2 to facilitate bacterial invasion.
Twofold serial dilutions of the drugs were prepared in infection solution containing 50 μg/ml gentamicin in a 96-well plate. After the invasion period, the bacterial inoculum was removed, and the serial dilutions of the drugs were added to the wells, except for the no-drug control. […] […] The experiments were performed in triplicates on separate days.
Statistical significance of the drug effects was assessed using a one-way ANOVA followed by Dunnett’s test, comparing each treatment to the drug-free control. Statistical significance of the differences in chemical characteristics between the hit compounds and the Prestwick library was assessed using a Mann–Whitney test. Statistical significance was set at P ≤ 0.05. A five-parameter logistic equation was used for asymmetric sigmoidal curve fitting and for EC50 and IC50 determination. The Venn diagram in Fig. 1F was prepared using BioVenn web application. Characteristics of the chemical and physical properties of Prestwick library compounds were obtained from Supplementary Table S1 from reference. Characteristics of the hit compounds not included in the Prestwick library were retrieved from the PubChem database.

[3] = E. coli, pH 7.4, regrowth delay of non-growing bacteria, 1:4 CA-MHB, 24 h treatment, OD600 6 h after 2500-fold dilution, read-out: EC50
[4] = TC7 cells infected with GFP-expressing S. flexneri, 14 h treatment

## O=C(O)c1cn(C2CC2)c2cc(N3CCNCC3)c(F)cc2c1=O [Ciprofloxacin]
[1]; [3]
  EC50: 1.38 µM
[2]
  IC50: 0.054 µM
[2]; [4]
  Fluorescence intensity (RFU), Mean, 0.5 x MIC: 6160.67 RFU
  Fluorescence intensity (RFU), Mean, 2 x MIC: 3512.33 RFU
  Fluorescence intensity (RFU), Mean, 4 x MIC: 3078.86 RFU
  Fluorescence intensity (RFU), Mean, 8 x MIC: 2399.75 RFU
  Fluorescence intensity (RFU), Mean, 16 x MIC: 1781.06 RFU
  Fluorescence intensity (RFU), Mean, 32 x MIC: 1734.42 RFU
  Fluorescence intensity (RFU), Mean, MIC: 4637.36 RFU

## CCN1CCN(c2cc3c(cc2F)c(=O)c(C(=O)O)cn3C2CC2)CC1 [Enrofloxacin]
[1]; E. coli, LPM pH 5.5, regrowth delay of non-growing bacteria, 24 h treatment, OD600 6 h after 2500-fold dilution, read-out: EC50
  EC50: 21.5 µM
[1]; [3]
  EC50: 5.17 µM
[2]
  IC50: 0.036 µM
[2]; TC7 cells infected with GFP-expressing S. flexneri, 14 h treatment, 0.125 x MIC
  Fluorescence intensity (RFU), Mean, 0.125 x MIC: 8510.46 RFU
[2]; TC7 cells infected with GFP-expressing S. flexneri, 14 h treatment, 0.25 x MIC
  Fluorescence intensity (RFU), Mean, 0.25 x MIC: 7346.62 RFU
[2]; [4]
  Fluorescence intensity (RFU), Mean, 0.5 x MIC: 6043.88 RFU
  Fluorescence intensity (RFU), Mean, 2 x MIC: 2710.72 RFU
  Fluorescence intensity (RFU), Mean, 4 x MIC: 1953.94 RFU
  Fluorescence intensity (RFU), Mean, 8 x MIC: 1617.72 RFU
  Fluorescence intensity (RFU), Mean, 16 x MIC: 1488.39 RFU
  Fluorescence intensity (RFU), Mean, 32 x MIC: 1501.89 RFU
  Fluorescence intensity (RFU), Mean, MIC: 3054.19 RFU

## C=C[C@]1(C)C[C@@H](OC(=O)CSC(C)(C)CNC(=O)[C@H](N)C(C)C)[C@]2(C)[C@H](C)CC[C@]3(CCC(=O)[C@H]32)[C@@H](C)[C@@H]1O [Valnemulin]
[1]; [3]
  EC50: 0.373 µM
[1]; regrowth delay and killing, Figs. 2 and 3
  activity against non-growing UPEC in LPM (pH 5.5) compared to 1:4 CA-MHB (pH 7.4): active at pH 7.4 and completely inactive in the acidic medium

## CS[C@H]1SC[C@H]2C(=O)N(C)[C@@H](C(C)C)C(=O)OC[C@@H](NC(=O)c3cnc4ccccc4n3)C(=O)N[C@@H](C)C(=O)N(C)[C@@H]1C(=O)N(C)[C@@H](C(C)C)C(=O)OC[C@@H](NC(=O)c1cnc3ccccc3n1)C(=O)N[C@@H](C)C(=O)N2C [Echinomycin]
[1]; E. coli in 1:4 CA-MHB (pH 7.4), 0.25 μM
  OD600 at 6hr, Mean: 0.627
[1]; E. coli in 1:4 CA-MHB (pH 7.4), 0.5 μM
  OD600 at 6hr, Mean: 0.601
[1]; E. coli in 1:4 CA-MHB (pH 7.4), 1 μM
  OD600 at 6hr, Mean: 0.561
[1]; E. coli in 1:4 CA-MHB (pH 7.4), 2.5 μM
  OD600 at 6hr, Mean: 0.340
[1]; E. coli in 1:4 CA-MHB (pH 7.4), 5 μM
  OD600 at 6hr, Mean: 0.110
[1]; E. coli in 1:4 CA-MHB (pH 7.4), 10 μM
  OD600 at 6hr, Mean: 0.090
[1]; E. coli in 1:4 CA-MHB (pH 7.4), 30 μM
  OD600 at 6hr, Mean: 0.091
[1]; E. coli in LPM (pH 5.5), 0.25 μM
  OD600 at 6hr, Mean: 0.602
[1]; E. coli in LPM (pH 5.5), 0.5 μM
  OD600 at 6hr, Mean: 0.564
[1]; E. coli in LPM (pH 5.5), 1 μM
  OD600 at 6hr, Mean: 0.465
[1]; E. coli in LPM (pH 5.5), 2.5 μM
  OD600 at 6hr, Mean: 0.288
[1]; E. coli in LPM (pH 5.5), 5 μM
  OD600 at 6hr, Mean: 0.215
[1]; E. coli in LPM (pH 5.5), 10 μM
  OD600 at 6hr, Mean: 0.181
[1]; E. coli in LPM (pH 5.5), 30 μM
  OD600 at 6hr, Mean: 0.160
[1]; pH 5.5
  EC50: 1.53 µM
[1]; pH 5.5, read-out: EC50 (regrowth inhibition curve, Fig. S4)
  EC50: 1.52 µM
[1]; pH 7.4
  EC50: 2.4 µM
[1]; pH 7.4, read-out: EC50 (regrowth inhibition curve, Fig. S4)
  EC50: 2.39 µM
